US11014913B2, “Pyridazinones as PARP7 inhibitors” (Ribon Therapeutics Inc., priority 2018, dated 2021)

What was measured:
PARP7 [1] = molecular target: T1, PARP7 (Homo sapiens (Human), UniProt Q7Z3E1); assay: PARP7 inhibition potency (Table A-1); format: biochemical; details: comparison of separated isomers; see Table A-1
PARP7 [2] = molecular target: T1, PARP7; assay: Enzymatic assay for inhibition of PARP7 (TR-FRET displacement of Probe A from the TIPARP active site); format: binding
Method: 20 nL of a dose response curve of each test compound was spotted in black 384-well polystyrene proxiplates (Perkin Elmer) using a Mosquito (TTP Labtech). […] Reactions were incubated at 25° C. for an additional 30 min, then read on an Envision platereader equipped with a LANCE/DELFIA top mirror (Perkin Elmer) using excitation of 320 nm and emission of 615 nm and […] with a 90 μs delay. The ratio of the 665/615 nm emission were calculated for each well to determine the amount of complex of TIPARP and Probe A in each well. […] The Hill Coefficient is normally allowed to float but may also be fixed at 1 in a 3-parameter fit. Y is the % inhibition and X is the compound concentration.

CT26 cells [3] = assay: Tumor growth in murine CT26 colon cancer syngeneic model (oral dosing); format: in vivo; details: CT26, BALB/c mice, BID 125-500 mg/kg or QD 500 mg/kg, 21 days
Text: (§1) Example H: Inhibition of Tumor Growth by Oral Dosing with a PARP7 Inhibitor
(§2) The effect of Compound 561 on tumor growth was studied in a human NCI-H1373 lung cancer xenograft and a murine CT26 colon cancer syngeneic model.
For the CT26 study, BALB/c mice were inoculated subcutaneously in the right flank with CT26 cells for tumor development. After 5 days of cell inoculation, mice with 36-79 mm^3 tumors were randomized into treatment groups with mean tumor volumes of 54 mm^3. The treatments were started from the next day post randomization (defined randomization day as day 0) and were treated with vehicle (25 or 50% Labrasol) or Compound 561 BID (2 times a day every 12 hours) at doses ranging from 125-500 mg/kg or QD (once a day) at 500 mg/kg for 21 days by oral gavage or needle subcutaneously. Tumor volumes were determined by manual calipers every 2-3 days. Mean tumor volume and SEM are plotted. BID: twice a day; PO: per oral administration; QD: once a day; SC: per subcutaneous administration. The first two doses for vehicle and Compound 561 500 mg/kg in the QD groups were delivered by subcutaneous injection. […] Statistical significance is calculated using two-way ANOVA followed by Bonferroni post-tests in which the treatment groups were compared to vehicle control (**** P<0.0001).

NCI-H1373 cells = assay: Tumor growth in human NCI-H1373 lung cancer xenograft (oral dosing); format: in vivo, SCID mice; details: 62.5 to 500 mg/kg once a day for 28 days
Text: as §1, §2
For the NCI-H1373 study, SCID mice were inoculated subcutaneously in the right flank with NCI-H1373 cells for tumor development. After 5 days of tumor growth, mice with 89-148 mm^3 tumors were randomized into treatment groups with mean tumor volumes of 121 mm^3. The treatments were started from the next day post randomization (defined randomization day as day 0) and were treated with vehicle (50% Labrasol) or Compound 561 (62.5, 125, 250, and 500 mg/kg) once a day for 28 days by oral gavage. Tumor volumes were determined by manual calipers every 2-3 days. Mean tumor volume and SEM are plotted. QD: once a day; PO: per oral administration. Statistical significance is calculated using two-way ANOVA followed by Bonferroni post-tests in which the treatment groups were compared to vehicle control (**** P<0.0001).

CT26 cells [4] = assay: Tumor growth in murine syngeneic model CT26 (subcutaneous dosing); format: in vivo; details: CT26, BALB/c mice
Text: (§3) Example G: Inhibition of Tumor Growth by Treatment with PARP7 Inhibitors
For the CT26 study BALB/c mice were inoculated subcutaneously at the right flank with CT26 cells for tumor development. Four days after tumor inoculation, 36 mice with tumor size ranging from 40-55 mm^3 (average tumor size 47 mm^3) were selected and assigned into 3 groups using stratified randomization with 12 mice in each group based upon their tumor volumes. The treatments were started from the next day post randomization (defined randomization day as day 0) and were treated with vehicle (0.5% methylcellulose +0.2% Tween 80), Compound 98 (500 mg/kg S.C. QD*21 days), Compound 93A (100 mg/kg S.C. BID*21 days) respectively. The tumor sizes were measured three times per week during the treatment. The entire study was terminated on day 21.
(§4) Mean tumor volume and SEM for both studies are plotted. Statistical significance, calculated using two-tailed unpaired t-tests in which each treatment group was compared to vehicle control, is indicated by an asterisk. Statistics were performed on groups with less than 20% animal loss (D21 for CT26, D17 for 4T1).

4T1-luc2-1A4 cells = assay: Tumor growth in murine syngeneic model 4T1 (orthotopic, mammary fat pad); format: in vivo; details: 4T1, BALB/c mice
Text: as §3
For the 4T1 study female BALB/c mice were inoculated orthotopically in the mammary fat pad with 4T1-luc2-1A4 cells for tumor development. Eight days after tumor inoculation, 45 mice with tumor size ranging from 63-88 mm^3 (average tumor size 67 mm^3) were selected and assigned into 3 groups using stratified randomization with 15 mice in each group based upon their tumor volumes. The treatments were started from the next day post randomization (defined randomization day as D0) and were treated with vehicle (0.5% methylcellulose +0.2% Tween 80), Compound 98 (500 mg/kg S.C. QD*21 days), Compound 93A (100 mg/kg S.C. BID*21 days) respectively. The tumor sizes were measured three times per week during the treatment. The entire study was terminated on D20.
as §4

T1 sequence (Q7Z3E1 whole entry): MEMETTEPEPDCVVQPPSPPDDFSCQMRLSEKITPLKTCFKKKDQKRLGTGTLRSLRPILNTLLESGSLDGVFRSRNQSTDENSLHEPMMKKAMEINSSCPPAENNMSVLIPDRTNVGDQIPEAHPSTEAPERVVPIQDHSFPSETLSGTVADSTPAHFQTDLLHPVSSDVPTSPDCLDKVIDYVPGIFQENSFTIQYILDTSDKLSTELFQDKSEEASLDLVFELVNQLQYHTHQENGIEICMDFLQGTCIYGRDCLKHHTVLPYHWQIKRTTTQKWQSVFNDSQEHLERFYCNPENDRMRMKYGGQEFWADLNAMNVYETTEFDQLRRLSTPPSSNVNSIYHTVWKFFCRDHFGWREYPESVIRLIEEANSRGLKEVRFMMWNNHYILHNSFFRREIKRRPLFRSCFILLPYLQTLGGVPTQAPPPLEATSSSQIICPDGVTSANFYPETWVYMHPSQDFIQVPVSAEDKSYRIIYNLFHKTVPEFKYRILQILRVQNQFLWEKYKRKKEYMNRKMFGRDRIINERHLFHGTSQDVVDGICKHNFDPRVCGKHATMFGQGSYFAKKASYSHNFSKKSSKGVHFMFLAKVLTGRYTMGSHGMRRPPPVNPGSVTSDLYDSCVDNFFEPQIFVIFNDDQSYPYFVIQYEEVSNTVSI

## N#Cc1ccc(N2CCN(C(=O)c3cccc(OC[C@@H]4c5ccccc5CN4c4cn[nH]c(=O)c4C(F)(F)F)c3)CC2)nc1 (single isomer, unassigned) [Example 18 Isomer B]
PARP7 [1]
  relative potency of the enantiomers: more potent enantiomer

## 5-[(2R)-2-[3-[4-(5-chloropyrimidin-2-yl)piperazin-1-yl]-3-oxopropoxy]-3-methoxypropoxy]-4-(trifluoromethyl)-2,3-dihydropyridazin-3-one [Example 560 Isomer B]
PARP7 [2]
  IC50: 0.1 to 1 µM

## C[C@@H](COCCC(=O)N1CCN(c2ncc(C(F)(F)F)cn2)CC1)Nc1cn[nH]c(=O)c1C(F)(F)F [Example 561, 5-[[(2S)-1-(3-oxo-3-[4-[5-(trifluoromethyl)pyrimidin-2-yl]piperazin-1-yl]propoxy)propan-2-yl]amino]-4-(trifluoromethyl)-2,3-dihydropyridazin-3-one]
CT26 cells [3]
  tumor growth: significantly reduces tumor growth
NCI-H1373 cells
  tumor regression: complete tumor regression at all dose levels

## N#Cc1ccc(N2CCN(C(=O)CNCC[C@@H]3c4ccccc4CN3c3cn[nH]c(=O)c3C(F)(F)F)CC2)nc1 [Example 144B, 6-[4-[2-([2-[(1R)-2-[6-oxo-5-(trifluoromethyl)-1,6-dihydropyridazin-4-yl]-2,3-dihydro-1H-isoindol-1-yl]ethyl]amino)acetyl]piperazin-1-yl]pyridine-3-carbonitrile]
PARP7 [2]
  IC50: 0.1 to 1 µM

## 5-[[(2R)-1-[3-[4-(5-chloropyrimidin-2-yl)piperazin-1-yl]-3-oxopropoxy]-3-methoxypropan-2-yl]oxy]-4-(trifluoromethyl)-2,3-dihydropyridazin-3-one [Example 560 Isomer D]
PARP7 [2]
  IC50: 0.1 to 1 µM

## N#Cc1ccc(N2CCN(C(=O)CCOC[C@@H]3c4ccccc4CN3c3cn[nH]c(=O)c3C(F)(F)F)CC2)nc1 [Example 93A, 6-[4-(3-[[(1S)-2-[6-oxo-5-(trifluoromethyl)-1,6-dihydropyridazin-4-yl]-2,3-dihydro-1H-isoindol-1-yl]methoxy]propanoyl)piperazin-1-yl]pyridine-3-carbonitrile]
CT26 cells [4]; 100 mg/kg S.C. BID*21 days
  tumor growth: significantly reduce tumor growth
4T1-luc2-1A4 cells; 100 mg/kg S.C. BID*21 days
  tumor growth: significantly reduce tumor growth

## 5-[[(2S)-1-[3-[4-(5-chloropyrimidin-2-yl)piperazin-1-yl]-3-oxopropoxy]-3-methoxypropan-2-yl]oxy]-4-(trifluoromethyl)-2,3-dihydropyridazin-3-one [Example 560 Isomer C]
PARP7 [2]
  IC50: < 0.1 µM

## N#Cc1ccc(N2CCN(C(=O)CCOC[C@@H]3CCCN3c3cn[nH]c(=O)c3C(F)(F)F)CC2)nc1 [Example 98, 6-[4-(3-[[(2S)-1-[6-Oxo-5-(trifluoromethyl)-1,6-dihydropyridazin-4-yl]pyrrolidin-2-yl]methoxy]propanoyl)piperazin-1-yl]pyridine-3-carbonitrile]
CT26 cells [4]; 500 mg/kg S.C. QD*21 days
  tumor growth: significantly reduce tumor growth
4T1-luc2-1A4 cells; 500 mg/kg S.C. QD*21 days
  tumor growth: significantly reduce tumor growth
